Results taken from ChEMBL document CHEMBL4145494, “Synthesis and biological evaluation of aurora kinases inhibitors based on N-trisubstituted pyrimidine scaffold” (Eur J Med Chem, 2018).
Calls of active or inactive are those of the source. The rule behind the calls is not given here.

Legend:
U-937 [1] = assay: Induction of apoptosis in human U937 cells assessed as necrotic cells at 0.6 uM after 48 hrs by Annexin-V/propidium iodide staining based flow cytometry (reference value: 1.13%); format: functional
HeLa = assay: Antiproliferative activity against human HeLa cells after 48 hrs by CCK8 assay; format: functional, cell-based
U-937 [2] = assay: Induction of apoptosis in human U937 cells assessed as late apoptotic cells at 0.3 uM after 48 hrs by Annexin-V/propidium iodide staining based flow cytometry (reference value: 1.93%); format: functional
MCF7 = assay: Antiproliferative activity against human MCF7 cells after 48 hrs by CCK8 assay; format: functional, cell-based; details: MCF7, 48 h
U-937 [3] = assay: Induction of apoptosis in human U937 cells assessed as late apoptotic cells at 0.6 uM after 48 hrs by Annexin-V/propidium iodide staining based flow cytometry (reference value: 1.93%); format: functional
Mus musculus = assay: Toxicity in nude mouse xenografted with human U937 cells assessed as body weight change at 50 to 100 mg/kg, ip administered once daily for 9 days; format: organism-based; details: in vivo, 216 h
U-937 [4] = assay: Induction of apoptosis in human U937 cells assessed as live cells at 0.6 uM after 48 hrs by Annexin-V/propidium iodide staining based flow cytometry (reference value: 94.6%); format: functional
HL-60 = assay: Antiproliferative activity against human HL60 cells after 48 hrs by CCK8 assay; format: functional, cell-based; details: HL-60, 48 h
U-937 [5] = assay: Induction of apoptosis in human U937 cells assessed as live cells at 0.3 uM after 48 hrs by Annexin-V/propidium iodide staining based flow cytometry (reference value: 94.6%); format: functional
U-937 [6] = assay: Induction of apoptosis in human U937 cells assessed as late apoptotic cells at 1.2 uM after 48 hrs by Annexin-V/propidium iodide staining based flow cytometry (reference value: 1.93%); format: functional
A-431 = assay: Antiproliferative activity against human A431 cells after 48 hrs by CCK8 assay; format: functional, cell-based; details: A-431, 48 h
U-937 [7] = assay: Antitumor activity against human U937 cells xenografted in nude mouse assessed as tumor weight at 50 mg/kg, ip administered once daily for 9 days (reference value: 1.64 +/- 0.22 g); format: functional
U-937 [8] = assay: Antitumor activity against human U937 cells xenografted in nude mouse assessed as tumor size at 100 mg/kg, ip administered once daily for 9 days (reference value: 1069.16 +/- 327.22 mm3); format: functional
U-937 [9] = assay: Induction of apoptosis in human U937 cells assessed as early apoptotic cells at 0.3 uM after 48 hrs by Annexin-V/propidium iodide staining based flow cytometry (reference value: 2.38%); format: functional
U-937 [10] = assay: Cell cycle arrest in human U937 cells assessed as accumulation at G2/M phase at 0.1 to 1 uM after 24 hrs by propidium iodide staining based flow cytometry relative to control; format: functional
U-937 [11] = assay: Antitumor activity against human U937 cells xenografted in nude mouse assessed as tumor weight at 100 mg/kg, ip administered once daily for 9 days (reference value: 1.64 +/- 0.22 g); format: functional
MDA-MB-231 [12] = assay: Induction of chromosome alignment defects in human MDA-MB-231 cells at 1 uM after 48 hrs by DAPI staining based immunofluorescence assay; format: functional, cell-based
K562 [13] = assay: Cell cycle arrest in human K562 cells assessed as accumulation at G2/M phase at 0.1 to 1 uM after 24 hrs by propidium iodide staining based flow cytometry relative to control; format: functional
U-937 [14] = assay: Induction of apoptosis in human U937 cells assessed as live cells at 1.2 uM after 48 hrs by Annexin-V/propidium iodide staining based flow cytometry (reference value: 94.6%); format: functional
HCT-116 = assay: Antiproliferative activity against human HCT116 cells after 48 hrs by CCK8 assay; format: functional, cell-based; details: HCT-116, 48 h
U-937 [15] = assay: Antiproliferative activity against human U937 cells after 48 hrs by CCK8 assay; format: functional, cell-based; details: U-937, 48 h
NB-4 [16] = assay: Antiproliferative activity against human NB4 cells after 48 hrs by CCK8 assay; format: functional, cell-based; details: NB-4, 48 h
MDA-MB-231 [17] = assay: Induction of aberrant spindle formation with tripolar and tetrapolar occurrence in human MDA-MB-231 cells at 1 uM after 48 hrs by DAPI staining based immunofluorescence assay; format: functional, cell-based
[18] = Stability of the compound up to 6 months at 40 +/- 2 degC and 75 +/- 5% relative humidity by HPLC analysis; format: physicochemical
Aurora kinase A = biological target: T1, Aurora kinase A (Homo sapiens, UniProt O14965); assay: Inhibition of AURKA (unknown origin) using FAM-labeled peptide substrate preincubated for 10 mins followed by substrate addition measured after 60 mins by caliper assay
T1 sequence (O14965 whole entry): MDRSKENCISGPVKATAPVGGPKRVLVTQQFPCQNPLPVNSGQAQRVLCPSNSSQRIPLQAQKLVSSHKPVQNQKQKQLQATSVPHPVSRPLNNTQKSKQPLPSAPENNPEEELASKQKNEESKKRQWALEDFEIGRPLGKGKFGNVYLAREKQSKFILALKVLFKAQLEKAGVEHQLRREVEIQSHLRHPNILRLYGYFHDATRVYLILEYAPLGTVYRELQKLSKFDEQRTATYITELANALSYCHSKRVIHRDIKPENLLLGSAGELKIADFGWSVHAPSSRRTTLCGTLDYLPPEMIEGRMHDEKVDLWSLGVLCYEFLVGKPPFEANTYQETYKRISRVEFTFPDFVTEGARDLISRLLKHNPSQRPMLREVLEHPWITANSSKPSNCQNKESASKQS

U-937 [19] = assay: Induction of apoptosis in human U937 cells assessed as early apoptotic cells at 1.2 uM after 48 hrs by Annexin-V/propidium iodide staining based flow cytometry (reference value: 2.38%); format: functional
U-937 [20] = assay: Induction of apoptosis in human U937 cells assessed as early apoptotic cells at 0.6 uM after 48 hrs by Annexin-V/propidium iodide staining based flow cytometry (reference value: 2.38%); format: functional
U-937 [21] = assay: Cell cycle arrest in human U937 cells assessed as decrease in 2N DNA content at 0.1 to 1 uM after 24 hrs by propidium iodide staining based flow cytometry; format: functional
MDA-MB-231 [22] = assay: Antiproliferative activity against human MDA-MB-231 cells after 48 hrs by CCK8 assay; format: functional, cell-based; details: MDA-MB-231, 48 h
U-937 [23] = assay: Antitumor activity against human U937 cells xenografted in nude mouse assessed as tumor size at 50 mg/kg, ip administered once daily for 9 days (reference value: 1069.16 +/- 327.22 mm3); format: functional
MDA-MB-231 [24] = assay: Inhibition of alpha-tubulin in human MDA-MB-231 cells assessed as abolishment of regular location of protein at 0.5 uM after 48 hrs by DAPI staining based immunofluorescence assay; format: cell-based
K562 [25] = assay: Antiproliferative activity against human K562 cells after 48 hrs by CCK8 assay; format: functional, cell-based; details: K562, 48 h
K562 [26] = assay: Cell cycle arrest in human K562 cells assessed as decrease in 2N DNA content at 0.1 to 1 uM after 24 hrs by propidium iodide staining based flow cytometry; format: functional
NB-4 [27] = assay: Cell cycle arrest in human NB4 cells assessed as accumulation at G2/M phase at 0.1 to 1 uM after 24 hrs by propidium iodide staining based flow cytometry relative to control; format: functional
NB-4 [28] = assay: Cell cycle arrest in human NB4 cells assessed as decrease in 2N DNA content at 0.1 to 1 uM after 24 hrs by propidium iodide staining based flow cytometry; format: functional
U-937 [29] = assay: Induction of apoptosis in human U937 cells assessed as necrotic cells at 1.2 uM after 48 hrs by Annexin-V/propidium iodide staining based flow cytometry (reference value: 1.13%); format: functional
Aurora kinase B = Aurora kinase B (Homo sapiens, UniProt Q96GD4); assay: Inhibition of AURKB (unknown origin) using FAM-labeled peptide substrate preincubated for 10 mins followed by substrate addition measured after 60 mins by caliper assay
Aurora kinase B, sequence (Q96GD4 whole entry): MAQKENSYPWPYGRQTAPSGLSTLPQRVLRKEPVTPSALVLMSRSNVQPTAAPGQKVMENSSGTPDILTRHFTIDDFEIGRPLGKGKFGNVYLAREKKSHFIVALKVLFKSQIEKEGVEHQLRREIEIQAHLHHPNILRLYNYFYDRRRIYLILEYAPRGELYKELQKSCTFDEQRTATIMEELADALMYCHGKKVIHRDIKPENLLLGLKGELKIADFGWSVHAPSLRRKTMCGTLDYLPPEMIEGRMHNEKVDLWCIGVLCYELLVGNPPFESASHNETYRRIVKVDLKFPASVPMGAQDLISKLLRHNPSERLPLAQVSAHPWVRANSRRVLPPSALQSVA

U-937 [30] = assay: Induction of apoptosis in human U937 cells assessed as necrotic cells at 0.3 uM after 48 hrs by Annexin-V/propidium iodide staining based flow cytometry (reference value: 1.13%); format: functional

**Q.** Which Activity (U-937 [1]) does the source give for Cc1cc(Nc2cc(N3CCN(C)CC3)nc(Nc3ccc(F)c(Cl)c3)n2)n[nH]1 here?
**A.** 3.12%

**Q.** And the IC50 (HeLa)?
**A.** 0.277 µM

**Q.** What about the Activity (U-937 [2]) of the same compound?
**A.** 6.76%

**Q.** And the IC50 (MCF7)?
**A.** 0.213 µM

**Q.** And the Activity (U-937 [3])?
**A.** 6.95%

**Q.** What about the Activity (Mus musculus) of the same compound?
**A.** Non-Toxic

**Q.** What about the Activity (U-937 [4]) of the same compound?
**A.** 67.8%

**Q.** What about the IC50 (HL-60) of the same compound?
**A.** 0.034 µM

**Q.** And the Activity (U-937 [5])?
**A.** 88.5%

**Q.** What about the Activity (U-937 [6]) of the same compound?
**A.** 7.15%

**Q.** What about the IC50 (A-431) of the same compound?
**A.** 0.0809 µM

**Q.** And the Activity (U-937 [7])?
**A.** 0.93 g

**Q.** And the Activity (U-937 [8])?
**A.** 528.88 mm3

**Q.** And the Activity (U-937 [9])?
**A.** 1.76%

**Q.** And the Activity (U-937 [10])?
**A.** >90%

**Q.** What about the Activity (U-937 [11]) of the same compound?
**A.** 0.54 g

**Q.** And the Activity (MDA-MB-231 [12])?
**A.** Active

**Q.** And the Activity (K562 [13])?
**A.** >90%

**Q.** And the Activity (U-937 [14])?
**A.** 86.3%

**Q.** What about the IC50 (HCT-116) of the same compound?
**A.** 0.18 µM

**Q.** What about the IC50 (U-937 [15]) of the same compound?
**A.** 0.0122 µM

**Q.** What about the IC50 (NB-4 [16]) of the same compound?
**A.** 0.5 µM

**Q.** And the Activity (MDA-MB-231 [17])?
**A.** Active

**Q.** What about the Stability [18] of the same compound?
**A.** Stable

**Q.** What about the IC50 (Aurora kinase A) of the same compound?
**A.** 0.0071 µM

**Q.** And the Activity (U-937 [19])?
**A.** 2.22%

**Q.** And the Activity (U-937 [20])?
**A.** 2.11%

**Q.** And the Activity (U-937 [21])?
**A.** Active

**Q.** What about the IC50 (MDA-MB-231 [22]) of the same compound?
**A.** 0.0955 µM

**Q.** And the Activity (U-937 [23])?
**A.** 753.6 mm3

**Q.** What about the inhibition (MDA-MB-231 [24]) of the same compound?
**A.** Active

**Q.** What about the IC50 (K562 [25]) of the same compound?
**A.** 0.0952 µM

**Q.** What about the Activity (K562 [26]) of the same compound?
**A.** Active

**Q.** And the Activity (NB-4 [27])?
**A.** >90%

**Q.** And the Activity (NB-4 [28])?
**A.** Active

**Q.** And the Activity (U-937 [29])?
**A.** 4.34%

**Q.** And the IC50 (Aurora kinase B)?
**A.** 0.0257 µM

**Q.** What about the Activity (U-937 [30]) of the same compound?
**A.** 3.01%

**Q.** With Cc1cc(Nc2cc(N3CCN(C)CC3)nc(Nc3ccc(Cl)c(Cl)c3)n2)n[nH]1 as the compound, how does the IC50 (HeLa) read?
**A.** 0.299 µM

**Q.** What about the IC50 (MCF7) of the same compound?
**A.** 0.552 µM

**Q.** What about the IC50 (A-431) of the same compound?
**A.** 0.129 µM

**Q.** And the IC50 (HCT-116)?
**A.** 0.106 µM

**Q.** And the IC50 (U-937 [15])?
**A.** 0.0179 µM

**Q.** What about the IC50 (Aurora kinase A) of the same compound?
**A.** 0.033 µM

**Q.** And the IC50 (MDA-MB-231 [22])?
**A.** 0.0849 µM

**Q.** And the IC50 (K562 [25])?
**A.** 0.128 µM

**Q.** What about the IC50 (Aurora kinase B) of the same compound?
**A.** 0.05 µM

**Q.** For Cc1cc(Nc2cc(N3CCOCC3)nc(Nc3ccc(F)c(Cl)c3)n2)n[nH]1, which IC50 (HeLa) is on record?
**A.** 0.464 µM

**Q.** What about the IC50 (MCF7) of the same compound?
**A.** 0.577 µM

**Q.** And the IC50 (U-937 [15])?
**A.** 0.024 µM

**Q.** And the IC50 (Aurora kinase A)?
**A.** 0.0063 µM

**Q.** And the IC50 (MDA-MB-231 [22])?
**A.** 0.101 µM

**Q.** What about the IC50 (K562 [25]) of the same compound?
**A.** 0.213 µM

**Q.** What about the IC50 (Aurora kinase B) of the same compound?
**A.** 0.0346 µM
